According to patent US20200206212A1 (Celgene Corporation, priority 2018, published 2020):

Experiments:
[1] = test system: acute myeloid leukemia (AML) at relapse; conditions: administered alone; cited from earlier work
physchem = format: physicochemical; conditions: for solubility: organic solvent or mixture, thermodynamic from solid
Method: FA/AcOH mixtures ranging from 100% FA to 70%/30% FA/AcOH in decrements of 10% were used.
Solutions of FA/AcOH at ratios described in Table 39 were used. […] Samples were taken at each time point (4, 24, and 48 h) and assayed (36 total). Samples were spun down briefly (500 g, 4 min) to precipitate all solids and 25 μL of solution were taken for assay.

[2] = format: physicochemical
Description: “Compound 1” or “API” in the Examples herein refers to polymorph Form C of 2-(4-chlorophenyl)-N-((2-(2,6-dioxopiperidin-3-yl)-1-oxoisoindolin-5-yl)methyl)-2,2-difluoroacetamide. […] Other forms of Compound 1, including Form A, Form B, Form D, Form F and amorphous form can be used in the formulations provided herein.

In the case of “CT-011: anti-PD-1 antibody, a humanized antibody”, the “response in treating acute myeloid leukemia (AML) at relapse” value [1] is listed as “failed to show response”.
In the case of `O=C1CCC(N2Cc3cc(CNC(=O)C(F)(F)c4ccc(Cl)cc4)ccc3C2=O)C(=O)N1` (centres unmarked) [Compound 1, 2-(4-chlorophenyl)-N-((2-(2,6-dioxopiperidin-3-yl)-1-oxoisoindolin-5-yl)methyl)-2,2-difluoroacetamide], the “solubility across FA/AcOH mixtures” value (physchem) is reported as “maximized in 100% FA”, the solubility (physchem; 40 °C) is reported as greater than 250 mg/mL and the solubility (physchem; 60 °C) is reported as greater than 250 mg/mL. For the same compound, the Hygroscopicity [2] was “Not hygroscopic”, the “Solid State Stability” value [2] was “DS is physically stable under all storage conditions” and the major degradation pathway [2] was “Hydrolysis”. For the same compound, the “Solution Stability” value ([2]; pH 5) was “not stable in solution at pH of 5.0 or above”.
